Counter-ions that a name gives are not always drawn.
What was measured:
[1] = tested on: Lamin A/C depleted (siLMNA) U2OS cells; experiment: Nuclear shape rescue (DAPI staining, nuclear circularity) in Lamin A/C depleted cells; type: cell-based, human; settings: for increase in potency compared to Compound 2 (dose-dependent nuclear shape rescue): DAPI staining; for nuclear shape / nuclear circularity rescue: 16 hours, Compound 2 and 3 50 μM, MB-3 5 μM, FTI 5 μM, nocodazole 200 ng/ml, colchicine 1 μg/ml, latrunculin A 1 μM
Description: U2OS and SaOS-2 osteosarcoma cells, HeLa cervical cancer cells, A431 melanoma cells, NCI-SNU5 gastric cancer cells, MRC-5 lung fibroblast cells and Werner syndrome patient-derived SV40 fibroblast cells were grown in Dulbecco's modified Eagle medium (DMEM, Sigma-Aldrich) supplemented with 10% fetal bovine serum (BioSera), 2 mM L-glutamine, 100 U per ml penicillin, 100 μg ml^−1 streptomycin. Normal skin primary fibroblasts GM03440 and Hutchinson Gilford Progeria Syndrome (HGPS) skin primary fibroblasts AG11498 and AG06297 were purchased from Coriell Cell Repositories and used between passage number 9-12 and 20-23 respectively. Cells were grown in DMEM supplemented as above. RPE-1 retinal pigment epithelial cells were grown in DMEM and Ham F12 mix medium supplemented as above and buffered with sodium bicarbonate. HMV-II melanoma cell line, 22RV1 prostate carcinoma cells, NCI-H82 and NCI-H69 lung carcinoma cells, and NCI-N87 gastric cancer cell lines were grown in RPMI-1640 medium (Sigma-Aldrich) supplemented as above. Stably transfected U2OS cells were maintained in standard medium containing 1 mg ml^−1 G418 (Invitrogen). The siRNA duplexes were obtained from Life Sciences: Lamin A/C stealth RNAi: […] (SEQ ID NO: 1) and […] (SEQ ID NO: 2), NAT10 stealth RNAi: […] (SEQ ID NO: 3), and as control siRNA, stealth RNAi negative control duplexes were used. Plasmid DNA and siRNA transfections were carried out using Lipofectamine 2000 and Lipofectamine RNAiMax (Life Sciences) respectively, following the manufacturer's instructions. Cells were analysed 48 to 72 hours after transfection.
The following KAT and KDAC inhibitors were used in the nuclear shape rescue screen, incubating cells with the molecules for 16 hours: trichostatin A (1 μM), sodium butyrate (5 mM), tubacin (10 μM), SAHA (5 μM), curcumin (10 μM), garcinol (50 μM), anacardic acid (1 μM), MB-3 (5 μM), 4-(4-chlorophenyl)-2-(2-cyclopentylidenehydrazinyl)thiazole (Compound 2) (50 μM), 4-(4-chlorophenyl)-2-(2-cyclopentylidene-1-(prop-2-yn-1-yl)hydrazinyl)thiazole (Compound 3) (50 μM) and cyclopentylidene-[4-(4-cyanophenyl)thiazol-2-yl)hydrazine (Compound 1) (Remodelin) (10 to 50 μM). For HGPS cellular fitness assays, Remodelin was incubated at 1 μM for 1 to 10 days, renewing the medium every 3 days. For long-term senescence assay, cells were kept and passaged in medium containing 1 μM Remodelin or DMSO only for 12 population doublings. Senescence was assessed after 8 days of Remodelin treatment when cells were at Population Doubling 12, and then after several weeks of Remodelin treatment, when cells reached Population Doubling 24 using the Senescence β-Galactosidase Staining Kit #9860 from Cell Signaling. Nocodazole, colchicine and latrunculin A (Sigma-Aldrich) were used at 200 ng/ml, 1 μg/ml and 1 μM respectively. Aphidicolin (Sigma-Aldrich) was used at 5 μg/ml for 16 h. Farnesyltransferase inhibitor FTI-277 was purchased from Tocris Bioscience and used at 5 μM. ATMi (KU55933) and ATRi (ATR-45) were obtained from Tocris Bioscience and from the Ohio State University respectively and used at 10 μM and 500 nM. Pifithrin alpha (Sigma-Aldrich) was used at 10 μM.
CellProfiler software was used to quantify nuclear circularity and nuclear area from DAPI staining pictures, using the “object size shape” measurement. The AreaShape measurement allowed the calculation of the Form Factor index ([…]) corresponding to circularity (a Form Factor of 1 reflecting a perfect circle), as well as the calculation of nuclear Area.
Lamin A/C was depleted by siRNA in U2OS cells (siLMNA) to induce misshapen nuclei. Cells were then treated for 16 h with various analogues of Compound 2 and nuclear shape rescue was analysed by DAPI staining. The results are shown in FIG. 18 and FIG. 19 which display the structures of the tested molecules and their ability to rescue nuclear shape.

[2] = Stability on exposure to light or air; type: physicochemical
[3] = A431 proliferation assay (IncuCyte ZOOM); type: cell-based, human
Description: A431 cells expressing a low level of Lamin A protein (see FIG. 2) were plated at low density and treated with the indicated concentration of Compound 2. Cell growth was monitored automatically over time using an IncuCyte ZOOM®.

Row | SMILES | increase in potency compared to Compound 2 (dose-dependent nuclear shape rescue) [1] | increase in potency compared to Compound 2 (dose-dependent nuclear shape rescue) ([1]; listed as Remodelin) [fold] | stability [2] | reduction of A431 proliferation ([3]; 10 μM) | nuclear shape / nuclear circularity rescue [1] | A431 cell growth ([3]; indicated concentrations, growth monitored over time)
1 | N#Cc1ccc(-c2csc(NN=C3CCCC3)n2)cc1 [Compound 1, 4-(4-Cyanophenyl)-2-(2-cyclopentylidenehydrazinyl)thiazole] | five-fold | ~5 | most potent and stable analogue of the series | about 50% | – | –
2 | Clc1ccc(-c2csc(NN=C3CCCC3)n2)cc1 [Compound 2, 4-(4-Chlorophenyl)-2-(2-cyclopentylidenehydrazinyl)thiazole Hydrochloride Salt] | – | – | rapidly degraded upon exposure to light or air | – | completely restoring nuclear shape and circularity | inhibited in a dose-dependent manner
3 | C#CCN(N=C1CCCC1)c1nc(-c2ccc(Cl)cc2)cs1 [Compound 3, 4-(4-Chlorophenyl)-2-(2-cyclopentylidene-1-(prop-2-yn-1-yl)hydrazinyl)thiazole] | – | – | – | – | equivalent cellular activity as Compound 2 | –

— patent publication US9809562B2, “NAT10 modulators for treating or preventing laminopathies, aging and cancer” (CAMBRIDGE ENTERPRISE LIMITED, priority 2014, dated 2017)
